# Laboratory results: paper PMC7998250, “Temperate Zone Plant Natural Products—A Novel Resource for Activity against Tropical Parasitic Diseases” (Pharmaceuticals, 2021)
# Where two headings read alike, the source gives them in different places.
# Experiments:
# [1] = Cytotoxicity CC50, differentiated THP-1, Alamar Blue; format: cell-based, human; settings: human
# Excerpt: The four lanosterone-like sterols derived from the Noble Fir Abies procera (700022, 700107, 700136) and the Grand Fir Abies grandis (700240) were the only initial compounds taken forward for L. mexicana due to their nanomolar activity and apparent low cytotoxicity (Figure 3a). […] Understanding the impact of the ring-opened lactone head group in this compound compared to the other three warrants further analysis in exploring their structure-activity relationships. These four sterols were also tested for growth inhibitory activity against L. donovani axenic amastigotes. […] As Leishmania spp. amastigotes typically reside with macrophages, further cytotoxicity assays with these sterols were performed against an activated monocyte cell line (THP-1) (Figure 4b). […]
# [2] = in vitro; settings: human
# How it was run: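 Human hepatoma cells seeded at 1 × 10^5 cells/mL with two-fold serial compound dilutions, incubated 48 h at 37 °C, 5% CO2 in DMEM/10% FBS. Viability read by Alamar Blue. CC50 estimated from viability normalised to untreated controls versus log concentration.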
# [3] = system: P. falciparum Dd2Luc intraerythrocytic trophozoites; experiment: Initial screen, intraerythrocytic P. falciparum, Malaria SYBR-Green I fluorescence assay; format: cell-based, Plasmodium falciparum; settings: for activity at 2 µM / inhibition of growth at 2 µM: Plasmodium falciparum, 48 h; for initial hit against P. falciparum: 2 μM, growth reduced by ≥50%; for inhibition of growth at 2 µM: read-out: initial hit P.f
# How it was run: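 L. mexicana axenic amastigotes at 1 × 10^6 cells/mL exposed 72 h to compounds at 2 μM, growth read by Alamar Blue; P. falciparum trophozoites at 0.5% parasitaemia, 2% haematocrit, 48 h at 2 μM, SYBR-Green I read-out. Growth normalised to 1% DMSO; hits ≥50% growth reduction.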
# [4] = read-out: %growth P. falciparum, mean % growth compared to a normalised control with same concentration of DMSO solvent, initial screen
# [5] = differentiated THP-1, 48 h, read-out: THP1 CC50
# [6] = read-out: mean % growth, P. falciparum, initial screen, compared to a normalised control with same concentration of DMSO solvent
Structure (SMILES),CC50 at 48 h ([1]; THP1 CC50),"CC50 at 48 h ([2]; pH 7, HepG2 CC50)","activity at 2 µM [3, 4]","CC50 at 48 h ([2]; pH 7, HepG2 CC50, 48 h)","CC50 at 48 h [1, 5]","activity at 2 µM [3, 6]",also measured
CC1=CC(O)(CC(C)C2(C)CC=C3C4=CCC5C(C)(C)C(O)CCC5(C)C4CCC32C)OC1=O (stereo not shown) [Compound 700022],17 µM,28 µM,105%,,,,
CC1OC(OC2C(OC(=O)C3CC[C@@H]4[C@H](C3)OC3(CC(OC(=O)/C=C/c5ccccc5)[C@@H](C)CO3)C43CO3)OC(CO)C(O)C2O)C(O)C(O)C1O (stereo partly shown) [Compound 700042],,,28.9%,2.5 µM,,,initial hit against P. falciparum [3]: initial hits; inhibition of growth at 2 µM [3]: > 50%
CC1=CC(O)(CC(C)C2(C)CCC3C4=CCC5C(C)(CCC(O)C5(C)C)C4=CCC32C)OC1=O (stereo not shown) [Compound 700107],27 µM,45 µM,96.8%,,,,
CC1=CC(O)(CC(C)C2(C)CC=C3C4=CCC5C(C)(C)C(=O)CCC5(C)C4CCC32C)OC1=O (stereo not shown) [Compound 700136],17 µM,28 µM,99.9%,,,,
C/C(=C/C(=O)CC(C)C1CCC2(C)C3=CCC4C(C)(C)C(=O)CCC4(C)C3CCC12C)C(=O)O (stereo not shown) [Compound 700240],,47 µM,77.9%,,,,"CC50 at 48 h ([1]; THP-1 cells differentiated into macrophages with PMA, differentiated THP-1, 48 h, read-out: THP1 CC50): 13.5 µM"
C=C1C(=O)OC2CC(C)C3C=CC(=O)C3(C)C(OC(C)=O)C12 (stereo not shown) [Compound 701155],,,,,,,"mean % growth, P. falciparum ([3]; initial screen, compared to a normalised control with same concentration of DMSO solvent): 55.1%"
C=C1C(=O)OC2CC(C)C3C=CC(=O)C3(C)C(OC(=O)C(C)C)C12 (stereo not shown) [Compound 701157],,,,1.3 µM,0.73 µM,51.9%,
C=C1C(=O)OC2CC(C)C3C=CC(=O)C3(C)C(OC(=O)C(C)CC)C12 (stereo not shown) [Compound 701158],,,,0.8 µM,0.29 µM,49%,initial hit against P. falciparum [3]: initial hits; inhibition of growth at 2 µM [3]: > 50%
C=C1C(=O)OC2CC(C)C3C(OC)CC(=O)C3(C)C(OC(=O)C(C)CC)C12 (stereo not shown) [Compound 701159],,,,3.4 µM,1.42 µM,83.7%,
